Assay results taken from ChEMBL document CHEMBL1201862, “PubChem BioAssay data set” (2004).
The source made the active and inactive calls.

Legend:
[1] = inhibition of K1F phage lysis, E. coli UTI89, bacterial capsule biogenesis inhibitors, alamar blue (AID 488966); assay type: functional
[2] = target: Eukaryotic translation initiation factor 4E (Mus musculus, UniProt P63073); experiment: eIF4E–eIF4G protein interaction inhibitors, dose response, biochemical, TR-FRET (AID 855); assay type: functional;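 note: potency for disrupting eIF4E binding to eIF4GI seen as loss of FRET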
[3] = target: Eukaryotic translation initiation factor 4H (Homo sapiens, UniProt Q15056); experiment: eIF4H inhibition in translation initiation, SAR follow-up (AID 435011); assay type: functional
[4] = target: Polyadenylate-binding protein 1 (Homo sapiens, UniProt P11940); experiment: PABP inhibition in translation initiation, SAR follow-up (AID 435018); assay type: functional
[5] = A cytotoxicity screen of small molecule inhibitors of the PhoP region in Salmonella typhi identified in the primary screen. [Related pubchem assays: 1850, 1864, 1985 ]; assay type: functional
Bcl-2-related protein A1 [6] = target: T1, Bcl-2-related protein A1 (Mus musculus, UniProt Q07440); experiment: Bfl-1 inhibitors, primary screen, biochemical, fluorescence polarization, FITC-Bid, mouse (AID 432)
T1 sequence (Q07440 whole entry): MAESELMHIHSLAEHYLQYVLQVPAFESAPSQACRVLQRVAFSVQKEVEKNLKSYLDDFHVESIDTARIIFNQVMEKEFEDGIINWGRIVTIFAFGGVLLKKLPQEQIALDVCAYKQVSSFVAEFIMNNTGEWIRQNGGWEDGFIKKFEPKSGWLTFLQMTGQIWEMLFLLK

Bcl-2-related protein A1 [7] = target: T1, Bcl-2-related protein A1; experiment: Bfl-1 inhibitors blocking BH3 peptide binding, confirmation, biochemical, TR-FRET, mouse Bfl-1 (AID 621);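 note: TR-FRET binding of GST-Bfl-1 to FITC-labelled Bid peptide via terbium antibody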
[8] = target: NACHT, LRR and PYD domains-containing protein 3 (Homo sapiens, UniProt Q96P20); experiment: NALP3 inhibitors in yeast, dose response, luminescent (AID 488799); assay type: functional
[9] = target: T2, Mannose-6-phosphate isomerase (Homo sapiens, UniProt P34949); experiment: Confirmation of compounds inhibiting phosphomannose isomerase (PMI) via a fluorescence intensity assay using a high concentration of mannose 6-phosphate. [Related pubchem assays (depositor defined):AID1209, AID1220, AID1545, AID1553, AID1620]
T2 sequence (P34949 whole entry): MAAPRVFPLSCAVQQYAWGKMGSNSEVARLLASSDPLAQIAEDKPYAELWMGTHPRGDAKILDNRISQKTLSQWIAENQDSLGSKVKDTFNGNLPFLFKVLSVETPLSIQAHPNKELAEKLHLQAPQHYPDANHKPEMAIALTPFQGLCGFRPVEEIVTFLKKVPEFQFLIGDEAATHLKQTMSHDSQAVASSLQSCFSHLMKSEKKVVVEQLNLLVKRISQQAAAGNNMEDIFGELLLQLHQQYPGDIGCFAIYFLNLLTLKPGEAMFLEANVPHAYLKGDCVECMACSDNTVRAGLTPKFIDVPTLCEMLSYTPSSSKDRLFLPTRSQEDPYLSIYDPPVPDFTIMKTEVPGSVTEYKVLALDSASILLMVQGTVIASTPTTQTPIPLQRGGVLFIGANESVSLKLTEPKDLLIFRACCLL

[10] = target: T2, Mannose-6-phosphate isomerase; experiment: PMI enzyme inhibitors, confirmation, biochemical, fluorescence intensity (AID 1535)
[11] = target: Alkaline phosphatase, placental type (Homo sapiens, UniProt P05187); experiment: PLAP enzyme inhibitors, confirmation, biochemical, luminescence (AID 1512); assay type: functional
[12] = A Cell Based Secondary Assay To Explore Cytotoxicity of Compounds that Sensitize Mycobacterium Tuberculosis to Beta-Lactam Antibiotics.; assay type: functional
[13] = target: G-protein coupled receptor 35 (Homo sapiens, UniProt Q9HC97); experiment: SAR analysis of Antagonists of the GPR35 Receptor using an Image-Based Assay - Set 5. [Related pubchem assays (depositor defined):AID2058, AID2079]; assay type: functional
[14] = target: G-protein coupled receptor 55 (Homo sapiens, UniProt Q9Y2T6); experiment: SAR Analysis of Selective Antagonists of GPR55 using an Image-Based Assay - Set 3. [Related pubchem assays (depositor defined):AID2058, AID2079]; assay type: functional
Sequence of G-protein coupled receptor 55 (Q9Y2T6 whole entry): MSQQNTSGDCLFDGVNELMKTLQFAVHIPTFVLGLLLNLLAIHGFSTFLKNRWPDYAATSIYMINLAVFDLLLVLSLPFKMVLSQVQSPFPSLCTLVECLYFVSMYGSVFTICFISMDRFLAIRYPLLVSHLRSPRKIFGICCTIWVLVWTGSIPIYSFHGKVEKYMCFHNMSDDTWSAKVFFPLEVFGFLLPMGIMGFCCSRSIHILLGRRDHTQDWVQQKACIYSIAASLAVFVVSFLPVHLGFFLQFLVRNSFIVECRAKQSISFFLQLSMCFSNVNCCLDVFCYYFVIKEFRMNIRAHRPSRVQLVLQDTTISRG

Sequence of Alkaline phosphatase, placental type (P05187 whole entry): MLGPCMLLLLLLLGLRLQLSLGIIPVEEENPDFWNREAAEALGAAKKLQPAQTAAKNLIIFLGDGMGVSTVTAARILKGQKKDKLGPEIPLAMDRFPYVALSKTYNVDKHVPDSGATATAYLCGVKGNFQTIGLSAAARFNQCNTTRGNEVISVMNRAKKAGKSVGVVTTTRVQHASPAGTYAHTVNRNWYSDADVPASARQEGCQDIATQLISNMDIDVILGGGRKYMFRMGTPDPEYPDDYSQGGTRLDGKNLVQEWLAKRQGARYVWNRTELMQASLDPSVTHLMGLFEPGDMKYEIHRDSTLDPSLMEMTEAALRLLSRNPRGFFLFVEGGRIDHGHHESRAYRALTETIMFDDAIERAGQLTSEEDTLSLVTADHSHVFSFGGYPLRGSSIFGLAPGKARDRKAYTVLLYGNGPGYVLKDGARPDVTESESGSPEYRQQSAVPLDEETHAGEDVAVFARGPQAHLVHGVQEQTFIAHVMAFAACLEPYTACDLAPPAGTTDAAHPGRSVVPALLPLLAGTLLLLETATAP
Sequence of Polyadenylate-binding protein 1 (P11940 whole entry): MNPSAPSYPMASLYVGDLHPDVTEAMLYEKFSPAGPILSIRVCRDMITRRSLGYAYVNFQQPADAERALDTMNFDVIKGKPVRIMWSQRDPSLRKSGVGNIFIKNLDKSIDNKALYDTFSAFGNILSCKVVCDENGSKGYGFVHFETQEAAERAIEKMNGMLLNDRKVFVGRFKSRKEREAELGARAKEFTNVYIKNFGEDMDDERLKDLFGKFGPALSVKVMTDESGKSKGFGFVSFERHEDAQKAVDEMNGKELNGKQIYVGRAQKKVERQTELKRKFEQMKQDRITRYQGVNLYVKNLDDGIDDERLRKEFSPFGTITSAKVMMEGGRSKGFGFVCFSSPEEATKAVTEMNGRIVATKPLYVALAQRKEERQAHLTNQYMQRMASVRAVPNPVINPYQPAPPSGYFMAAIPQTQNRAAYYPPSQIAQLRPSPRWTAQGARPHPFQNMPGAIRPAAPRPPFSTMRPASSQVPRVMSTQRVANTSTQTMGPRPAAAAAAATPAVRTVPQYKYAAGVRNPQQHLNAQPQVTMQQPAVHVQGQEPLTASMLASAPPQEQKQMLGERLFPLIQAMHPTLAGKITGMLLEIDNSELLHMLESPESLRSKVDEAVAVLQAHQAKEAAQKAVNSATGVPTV
Sequence of NACHT, LRR and PYD domains-containing protein 3 (Q96P20 whole entry, the tested form may be a part): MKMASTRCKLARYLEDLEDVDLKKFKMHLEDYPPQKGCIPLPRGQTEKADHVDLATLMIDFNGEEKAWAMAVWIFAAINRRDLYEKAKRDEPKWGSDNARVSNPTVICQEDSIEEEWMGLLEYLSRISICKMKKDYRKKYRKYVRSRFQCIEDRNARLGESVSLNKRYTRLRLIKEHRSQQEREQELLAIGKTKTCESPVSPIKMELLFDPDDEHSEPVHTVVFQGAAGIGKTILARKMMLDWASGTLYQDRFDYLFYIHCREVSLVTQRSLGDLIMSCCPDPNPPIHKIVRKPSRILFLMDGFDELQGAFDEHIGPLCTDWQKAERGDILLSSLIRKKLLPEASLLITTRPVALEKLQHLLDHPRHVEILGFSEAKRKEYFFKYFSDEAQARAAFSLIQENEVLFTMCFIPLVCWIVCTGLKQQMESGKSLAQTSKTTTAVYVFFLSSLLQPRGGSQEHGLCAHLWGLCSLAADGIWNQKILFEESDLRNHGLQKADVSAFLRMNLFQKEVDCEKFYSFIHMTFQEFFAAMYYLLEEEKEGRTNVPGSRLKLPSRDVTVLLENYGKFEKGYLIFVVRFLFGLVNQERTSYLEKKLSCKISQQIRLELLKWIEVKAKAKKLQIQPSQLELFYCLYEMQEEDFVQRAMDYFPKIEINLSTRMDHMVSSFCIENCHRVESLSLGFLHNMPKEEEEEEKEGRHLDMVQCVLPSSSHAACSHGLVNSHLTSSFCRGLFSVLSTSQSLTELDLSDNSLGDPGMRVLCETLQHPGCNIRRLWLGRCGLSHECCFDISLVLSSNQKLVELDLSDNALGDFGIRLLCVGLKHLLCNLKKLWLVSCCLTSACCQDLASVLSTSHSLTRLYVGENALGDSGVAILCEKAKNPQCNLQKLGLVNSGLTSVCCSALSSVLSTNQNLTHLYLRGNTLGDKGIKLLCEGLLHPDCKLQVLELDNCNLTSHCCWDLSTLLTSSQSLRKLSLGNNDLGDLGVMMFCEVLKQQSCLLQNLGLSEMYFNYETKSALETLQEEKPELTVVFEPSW
Sequence of G-protein coupled receptor 35 (Q9HC97 whole entry): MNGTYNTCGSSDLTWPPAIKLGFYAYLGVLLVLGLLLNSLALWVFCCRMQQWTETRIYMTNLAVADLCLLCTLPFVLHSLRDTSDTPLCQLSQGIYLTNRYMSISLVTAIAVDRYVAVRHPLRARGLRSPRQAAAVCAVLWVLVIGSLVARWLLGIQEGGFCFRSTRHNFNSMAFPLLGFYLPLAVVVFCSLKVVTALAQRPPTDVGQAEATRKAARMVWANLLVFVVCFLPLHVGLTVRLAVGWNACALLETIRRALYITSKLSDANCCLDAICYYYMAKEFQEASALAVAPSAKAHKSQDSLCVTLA
Sequence of Eukaryotic translation initiation factor 4E (P63073 whole entry): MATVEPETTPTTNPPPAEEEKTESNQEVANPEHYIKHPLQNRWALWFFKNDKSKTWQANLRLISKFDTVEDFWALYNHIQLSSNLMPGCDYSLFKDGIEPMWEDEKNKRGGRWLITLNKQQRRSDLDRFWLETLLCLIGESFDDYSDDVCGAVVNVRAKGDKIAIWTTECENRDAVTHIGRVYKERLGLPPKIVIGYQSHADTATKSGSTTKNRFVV

SMILES: Cc1cc(NCCN)nc2ccccc12
- IC50 [1]: > 300 µM (active)

SMILES: CC(=O)Nc1c(-c2ccccc2)nc2ncccn12
- IC50 [2]: > 64 µM (inactive)

SMILES: COc1cc(NC(=O)CSc2ccc(-c3ccco3)nn2)cc(OC)c1
- IC50 [3]: 62.7 µM (active)
- IC50 [4]: > 100 µM (inactive)

SMILES: O=C(Nc1cccc(Br)c1)c1cc2ccccc2o1
- EC50 [5]: > 50 µM (active)
- IC50 (Bcl-2-related protein A1 [6]): > 100 µM (not active)
- IC50 (Bcl-2-related protein A1 [7]): > 100 µM (not active)
- IC50 [8]: 9.81 µM (active)

SMILES: O=C1N(Cc2ccccc2)c2ccccc2C12NNc1ccccc1O2 (centres undefined)
- IC50 [9]: > 100 µM (inactive)
- IC50 [10]: > 100 µM (inactive)
- IC50 [11]: > 100 µM (inactive)

SMILES: COC(=O)c1cnn(-c2ccccc2)c1/C=N/NC(=S)Nc1ccc(Cl)cc1
- CC50 [12]: > 40 µM (active)
- IC50 [13]: 0.319 µM (active)
- IC50 [14]: > 32 µM (inactive)
